For two compounds, inhibition of growth and IC50 results are on record in ChEMBL document CHEMBL4414672, “Synthesis of certain benzothieno[3,2-d]pyrimidine derivatives as a selective SIRT2 inhibitors” (Eur J Med Chem, 2020).

For test [1], the system named is MCF7. The test can be described thus: Growth inhibition of human MCF7 cells at 10^-5 M incubated for 48 hrs by sulforhodamine B assay. The settings on record: MCF7, 48 h, read-out: GI. Format: functional. (In general: The SRB assay estimates cell density from bound dye.)
Another test has as its system PC-3. The test can be described thus: Growth inhibition of human PC3 cells at 10^-5 M incubated for 48 hrs by sulforhodamine B assay. Format: functional. Particulars: PC-3, 48 h, read-out: GI.
The test system of another test is MDA-MB-468. The test can be described thus: Growth inhibition of human MDA-MB-468 cells at 10^-5 M incubated for 48 hrs by sulforhodamine B assay. Format: functional. The settings on record: MDA-MB-468, 48 h, read-out: GI.
The next test relates to HCT-15. Put plainly: Growth inhibition of human HCT15 cells at 10^-5 M incubated for 48 hrs by sulforhodamine B assay. It counts as functional. Particulars: HCT-15, 48 h, read-out: GI.
The test system of the next test is BT-549. The test can be described thus: Growth inhibition of human BT549 cells at 10^-5 M incubated for 48 hrs by sulforhodamine B assay. Particulars: BT-549, 48 h, read-out: GI. It counts as functional.
A further test deals with 786-0. The test can be described thus: Growth inhibition of human 786-0 cells at 10^-5 M incubated for 48 hrs by sulforhodamine B assay. Format: functional. The settings on record: 786-0, 48 h, read-out: GI.
The next test concerns NCI-H226. Put plainly: Growth inhibition of human NCI-H226 cells at 10^-5 M incubated for 48 hrs by sulforhodamine B assay. It counts as functional. Particulars: NCI-H226, 48 h, read-out: GI.
A further test relates to HL-60(TB). Put plainly: Growth inhibition of human HL-60(TB) cells at 10^-5 M incubated for 48 hrs by sulforhodamine B assay. It counts as functional. The settings on record: HL-60, 48 h, read-out: GI.
A further test concerns SR. The test can be described thus: Growth inhibition of human SR cells at 10^-5 M incubated for 48 hrs by sulforhodamine B assay. Particulars: read-out: GI. It counts as functional.
The next test relates to NCI-H460. The test can be described thus: Growth inhibition of human NCI-H460 cells at 10^-5 M incubated for 48 hrs by sulforhodamine B assay. It counts as functional. Particulars: NCI-H460, 48 h, read-out: GI.
In another test the test system is CCRF-CEM. The test can be described thus: Growth inhibition of human CCRF-CEM cells at 10^-5 M incubated for 48 hrs by sulforhodamine B assay. Format: functional. Particulars: read-out: GI.
In another test the test system is MOLT-4. The test can be described thus: Growth inhibition of human MOLT4 cells at 10^-5 M incubated for 48 hrs by sulforhodamine B assay. Particulars: MOLT-4, 48 h, read-out: GI. Format: functional.
The subject of a further test is Hs-578T. Put plainly: Growth inhibition of human Hs 578T cells at 10^-5 M incubated for 48 hrs by sulforhodamine B assay. Format: functional. The settings on record: read-out: GI.
The subject of the next test is HCC 2998. Put plainly: Growth inhibition of human HCC2998 cells at 10^-5 M incubated for 48 hrs by sulforhodamine B assay. Particulars: HCC 2998, 48 h, read-out: GI. It counts as functional.
Another test concerns HT-29. The test can be described thus: Growth inhibition of human HT-29 cells at 10^-5 M incubated for 48 hrs by sulforhodamine B assay. It counts as functional. The settings on record: HT-29, 48 h, read-out: GI.
For another test, the system named is TK-10. The test can be described thus: Growth inhibition of human TK10 cells at 10^-5 M incubated for 48 hrs by sulforhodamine B assay. The settings on record: TK-10, 48 h, read-out: GI. It counts as functional.
The test system of the next test is HOP-62. Put plainly: Growth inhibition of human HOP62 cells at 10^-5 M incubated for 48 hrs by sulforhodamine B assay. Particulars: HOP-62, 48 h, read-out: GI. Format: functional.
The next test concerns OVCAR-3. Put plainly: Growth inhibition of human OVCAR3 cells at 10^-5 M incubated for 48 hrs by sulforhodamine B assay. It counts as functional. The settings on record: OVCAR-3, 48 h, read-out: GI.
In another test the test system is IGROV-1. The test can be described thus: Growth inhibition of human IGROV1 cells at 10^-5 M incubated for 48 hrs by sulforhodamine B assay. It counts as functional. Particulars: IGROV-1, 48 h, read-out: GI.
The subject of another test is A498. Put plainly: Growth inhibition of human A498 cells at 10^-5 M incubated for 48 hrs by sulforhodamine B assay. Format: functional. Particulars: A498, 48 h, read-out: GI.
Another test deals with OVCAR-8. Put plainly: Growth inhibition of human OVCAR8 cells at 10^-5 M incubated for 48 hrs by sulforhodamine B assay. Format: functional. The settings on record: OVCAR-8, 48 h, read-out: GI.
Another test has as its system SN12C. Put plainly: Growth inhibition of human SN12C cells at 10^-5 M incubated for 48 hrs by sulforhodamine B assay. It counts as functional. The settings on record: read-out: GI.
Another test has as its system ACHN. Put plainly: Growth inhibition of human ACHN cells at 10^-5 M incubated for 48 hrs by sulforhodamine B assay. It counts as functional. The settings on record: read-out: GI.
In the next test the test system is SW-620. The test can be described thus: Growth inhibition of human SW620 cells at 10^-5 M incubated for 48 hrs by sulforhodamine B assay. It counts as functional. The settings on record: SW-620, 48 h, read-out: GI.
A further test concerns CAKI-1. The test can be described thus: Growth inhibition of human Caki1 cells at 10^-5 M incubated for 48 hrs by sulforhodamine B assay. Format: functional. The settings on record: CAKI-1, 48 h, read-out: GI.
In another test the test system is HOP-92. The test can be described thus: Growth inhibition of human HOP92 cells at 10^-5 M incubated for 48 hrs by sulforhodamine B assay. Format: functional. The settings on record: HOP-92, 48 h, read-out: GI.
A further test concerns DU-145. Put plainly: Growth inhibition of human DU145 cells at 10^-5 M incubated for 48 hrs by sulforhodamine B assay. It counts as functional. Particulars: DU-145, 48 h, read-out: GI.
Another test relates to NCI-H23. Put plainly: Growth inhibition of human NCI-H23 cells at 10^-5 M incubated for 48 hrs by sulforhodamine B assay. It counts as functional. The settings on record: NCI-H23, 48 h, read-out: GI.
A further test concerns A549. Put plainly: Growth inhibition of human A549/ATCC cells at 10^-5 M incubated for 48 hrs by sulforhodamine B assay. Particulars: A549, 48 h, read-out: GI. Format: functional.
Test [2] has as its system UO-31. Put plainly: Growth inhibition of human UO31 cells at 10^-5 M incubated for 48 hrs by sulforhodamine B assay. Format: functional. The settings on record: UO-31, 48 h, read-out: GI.
The next test relates to T47D. Put plainly: Growth inhibition of human T47D cells at 10^-5 M incubated for 48 hrs by sulforhodamine B assay. Format: functional. The settings on record: read-out: GI.
Another test concerns HCT-116. The test can be described thus: Growth inhibition of human HCT116 cells at 10^-5 M incubated for 48 hrs by sulforhodamine B assay. It counts as functional. The settings on record: HCT-116, 48 h, read-out: GI.
Another test has as its system OVCAR-5. The test can be described thus: Growth inhibition of human OVCAR5 cells at 10^-5 M incubated for 48 hrs by sulforhodamine B assay. Format: functional. The settings on record: OVCAR-5, 48 h, read-out: GI.
Another test deals with RXF 393. The test can be described thus: Growth inhibition of human RXF393 cells at 10^-5 M incubated for 48 hrs by sulforhodamine B assay. Format: functional. Particulars: RXF 393, 48 h, read-out: GI.
The test system of a further test is K562. Put plainly: Growth inhibition of human K562 cells at 10^-5 M incubated for 48 hrs by sulforhodamine B assay. The settings on record: K562, 48 h, read-out: GI. It counts as functional.
The test system of another test is OVCAR-4. The test can be described thus: Growth inhibition of human OVCAR4 cells at 10^-5 M incubated for 48 hrs by sulforhodamine B assay. The settings on record: OVCAR-4, 48 h, read-out: GI. Format: functional.
A further test has as its system COLO 205. Put plainly: Growth inhibition of human COLO205 cells at 10^-5 M incubated for 48 hrs by sulforhodamine B assay. It counts as functional. Particulars: COLO 205, 48 h, read-out: GI.
A further test concerns KM12. The test can be described thus: Growth inhibition of human KM12 cells at 10^-5 M incubated for 48 hrs by sulforhodamine B assay. It counts as functional. The settings on record: KM12, 48 h, read-out: GI.
For the next test, the system named is EKVX. The test can be described thus: Growth inhibition of human EKVX cells at 10^-5 M incubated for 48 hrs by sulforhodamine B assay. Format: functional. The settings on record: read-out: GI.
Another test deals with NCI-H322M. The test can be described thus: Growth inhibition of human NCI-H322M cells at 10^-5 M incubated for 48 hrs by sulforhodamine B assay. It counts as functional. The settings on record: read-out: GI.
The test system of another test is MDA-MB-231. Put plainly: Growth inhibition of human MDA-MB-231 cells at 10^-5 M incubated for 48 hrs by sulforhodamine B assay. Particulars: MDA-MB-231, 48 h, read-out: GI. Format: functional.
For a further test, the system named is NCI/ADR-RES. The test can be described thus: Growth inhibition of human NCI/ADR-RES cells at 10^-5 M incubated for 48 hrs by sulforhodamine B assay. It counts as functional. Particulars: read-out: GI.
The test system of the next test is NCI-H522. The test can be described thus: Growth inhibition of human NCI-H522 cells at 10^-5 M incubated for 48 hrs by sulforhodamine B assay. Format: functional. Particulars: NCI-H522, 48 h, read-out: GI.
The test system of the next test is SK-OV-3. Put plainly: Growth inhibition of human SKOV3 cells at 10^-5 M incubated for 48 hrs by sulforhodamine B assay. Format: functional. Particulars: SK-OV-3, 48 h, read-out: GI.
In test [3] the test system is UO-31. Put plainly: Cytotoxicity against human UO31 cells assessed as reduction in cell viability after 24 hrs by MTT assay. Format: functional, cell-based. Particulars: UO-31, 24 h. For orientation: Tetrazolium assays rely on reduction of a dye to a coloured formazan, in cell work by metabolically active cells.
Test [4] has as its system MCF7. Put plainly: Cytotoxicity against human MCF7 cells assessed as reduction in cell viability after 24 hrs by MTT assay. It counts as functional, cell-based. Particulars: MCF7, 24 h.

One may read the IC50 as the concentration that inhibits the measured activity by half.

In brackets after ≈: the same amount, converted by molar mass.

Consider `O=C1CSC2=Nc3c(sc4ccc(Cl)cc34)C(c3cccc([N+](=O)[O-])c3)N12` (stereo unspecified), for which the inhibition of growth at 10 µM is 17.9% with MCF7 [1]; 1.11% in the test with PC-3; 4.8% in the test with MDA-MB-468; -1.95% in the test with HCT-15; -21.8% in the test on BT-549; -7.37% with 786-0. For the same compound, the inhibition of growth at 10 µM with NCI-H226 is 13.7%; in the test with HL-60(TB) it was 5.48%; in the test with SR, 17.6%; in the test on NCI-H460, -3.7%; in the test on CCRF-CEM, -12%; in the test on MOLT-4, 8.28%. Also, the inhibition of growth at 10 µM with Hs-578T is -2.09%; with HCC 2998 it was -24.4%; in the test with HT-29 it was -8.35%; in the test with TK-10 it was -14.8%; with HOP-62 it was 11%; in the test on OVCAR-3, 0.32%. Moreover, the inhibition of growth at 10 µM is 17.3% with IGROV-1; -13.1% with A498; 0.58% in the test with OVCAR-8; 2.31% in the test with SN12C; 3.93% in the test with ACHN; -3.15% in the test with SW-620. For the same compound, the inhibition of growth at 10 µM was 20% in the test on CAKI-1; -8.65% in the test on HOP-92; -14.2% in the test with DU-145; 10.5% in the test on NCI-H23; -1.88% with A549; 38.3% in the test on UO-31 [2]. Moreover, the inhibition of growth at 10 µM in the test with T47D is 8.22%; in the test with HCT-116, -0.32%; with OVCAR-5, -6.83%; in the test with RXF 393, -10.1%; with K562, 6.39%; with OVCAR-4, 2.1%. Moreover, the inhibition of growth at 10 µM in the test on COLO 205 was -4.05%; in the test with KM12, -3.54%; with EKVX, 21.2%; in the test with NCI-H322M it was 5.33%; in the test on MDA-MB-231, 10.8%; with NCI/ADR-RES, 12.2%. Moreover, the inhibition of growth at 10 µM worked out at 9.11% in the test on NCI-H522 and 7.65% in the test with SK-OV-3.
In the case of `O=c1[nH]c(=S)[nH]c(-c2ccccc2)c1Cc1c(O)ccc2ccccc12` [CAMBINOL], the concentration for half-maximal inhibition (IC50) amounted to 98.6 µg/mL (≈ 274 µM) in the test with UO-31 [3] and 33.9 µg/mL (≈ 94.2 µM) in the test on MCF7 [4].
